Tested on: 324938-238-R-J1-PDC complex spheroids viability
Experiment: Anticancer human tumor 324938-238-R-J1-PDC patient-derived bladder carcinoma cell line growth inhibition [CLK]
Conditions: for IC50: curve of first compound; for viability, T/C: stronger effect = lower value; active means viability on the fitted dose curve at most 10% of control; inactive means the rest
Procedure, shortened: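 Multi-cell-type spheroids combined patient-derived tumor cells with HUVEC endothelial cells and human mesenchymal stem cells. Paired agents were dosed in half-log steps down from about clinical Cmax, or from 10 microM where Cmax was unknown.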

[1] = second compound 0.0316 µM, first compound 0.0316 µM
[2] = second compound 0.0316 µM, first compound 0.1 µM
[3] = second compound 0.0316 µM, first compound 0.316 µM
[4] = second compound 0.0316 µM, first compound 1 µM
[5] = second compound 0.0316 µM, first compound 3.16 µM
[6] = second compound 0.0316 µM, first compound 10 µM
[7] = second compound 0.1 µM, first compound 0.0316 µM
[8] = second compound 0.1 µM, first compound 0.1 µM
[9] = second compound 0.1 µM, first compound 0.316 µM
[10] = second compound 0.1 µM, first compound 1 µM
[11] = second compound 0.1 µM, first compound 3.16 µM
[12] = second compound 0.1 µM, first compound 10 µM
[13] = second compound 0.316 µM, first compound 0.0316 µM
[14] = second compound 0.316 µM, first compound 0.1 µM
[15] = second compound 0.316 µM, first compound 0.316 µM
[16] = second compound 0.316 µM, first compound 1 µM
[17] = second compound 0.316 µM, first compound 3.16 µM
[18] = second compound 0.316 µM, first compound 10 µM
[19] = second compound 1 µM, first compound 0.0316 µM
[20] = second compound 1 µM, first compound 0.1 µM
[21] = second compound 1 µM, first compound 0.316 µM
[22] = second compound 1 µM, first compound 1 µM
[23] = second compound 1 µM, first compound 3.16 µM
[24] = second compound 1 µM, first compound 10 µM
[25] = second compound 3.16 µM, first compound 0.0316 µM
[26] = second compound 3.16 µM, first compound 0.1 µM
[27] = second compound 3.16 µM, first compound 0.316 µM
[28] = second compound 3.16 µM, first compound 1 µM
[29] = second compound 3.16 µM, first compound 3.16 µM
[30] = second compound 3.16 µM, first compound 10 µM
[31] = second compound 10 µM, first compound 0.0316 µM
[32] = second compound 10 µM, first compound 0.1 µM
[33] = second compound 10 µM, first compound 0.316 µM
[34] = second compound 10 µM, first compound 1 µM
[35] = second compound 10 µM, first compound 3.16 µM
[36] = second compound 10 µM, first compound 10 µM
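Further: viability read after seven days of drug exposure.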
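Wherever viability, T/C is given: 100% = DMSO vehicle control wells.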

COc1ccc([C@@H](O)c2cc(-c3ncnc4cc(N5CCOCC5)ccc34)c(F)cc2Cl)nn1 + CNC(=O)c1ccc(Nc2nc(OC3CCCC3)c3c(-c4ccc5nc(C)oc5c4)c[nH]c3n2)c(OC)c1
inactive: viability, T/C [1] 86.8% | viability, T/C [2] 76.4% | viability, T/C [3] 70.3% | viability, T/C [4] 63.5% | viability, T/C [5] 56.5% | viability, T/C [6] 35.9% | viability, T/C [7] 27.6% | viability, T/C [8] 26.3% | viability, T/C [9] 22.9% | viability, T/C [10] 28% | viability, T/C [11] 29% | viability, T/C [12] 22.7% | viability, T/C [13] 18.5% | viability, T/C [14] 20.5% | viability, T/C [15] 17.9% | viability, T/C [16] 16.5% | viability, T/C [17] 14.6% | viability, T/C [18] 16.1% | viability, T/C [19] 16% | viability, T/C [20] 14.5% | viability, T/C [21] 16% | viability, T/C [22] 14.8% | viability, T/C [23] 12.9% | viability, T/C [24] 11.2% | viability, T/C [25] 18.1% | viability, T/C [26] 14.2% | viability, T/C [27] 16.2% | viability, T/C [28] 14.7% | viability, T/C [29] 14.9% | viability, T/C [30] 9.35% | viability, T/C [31] 15.6% | viability, T/C [32] 16.7% | viability, T/C [33] 16.9% | viability, T/C [34] 16.8% | viability, T/C [35] 11.1% | viability, T/C [36] 12.1%
3770 nM: IC50 (second compound 0.0316 µM)
< 31.6 nM: IC50 (second compound 0.1 µM) | IC50 (second compound 0.316 µM) | IC50 (second compound 1 µM) | IC50 (second compound 3.16 µM) | IC50 (second compound 10 µM)

COc1cccc2c1C(=O)c1c(O)c3c(c(O)c1C2=O)CC(O)(C(=O)CO)CC3OC1CC(N)C(O)C(C)O1 (centres undefined) + CNC(=O)c1ccc(Nc2nc(OC3CCCC3)c3c(-c4ccc5nc(C)oc5c4)c[nH]c3n2)c(OC)c1
< 31.6 nM: IC50 (second compound 0.0316 µM) | IC50 (second compound 0.1 µM) | IC50 (second compound 0.316 µM) | IC50 (second compound 1 µM) | IC50 (second compound 3.16 µM) | IC50 (second compound 10 µM)
active: viability, T/C [3] 9.74% | viability, T/C [4] 0.7% | viability, T/C [5] 0.12% | viability, T/C [6] 0.14% | viability, T/C [9] 9.65% | viability, T/C [10] 0.48% | viability, T/C [11] 0.11% | viability, T/C [12] 0.15% | viability, T/C [15] 9.12% | viability, T/C [16] 0.49% | viability, T/C [17] 0.16% | viability, T/C [18] 0.13% | viability, T/C [21] 7.13% | viability, T/C [22] 0.58% | viability, T/C [23] 0.14% | viability, T/C [24] 0.15% | viability, T/C [27] 6.62% | viability, T/C [28] 0.36% | viability, T/C [29] 0.14% | viability, T/C [30] 0.16% | viability, T/C [33] 5.95% | viability, T/C [34] 0.31% | viability, T/C [35] 0.19% | viability, T/C [36] 0.23%
inactive: viability, T/C [1] 19.3% | viability, T/C [2] 16.8% | viability, T/C [7] 18.5% | viability, T/C [8] 20.2% | viability, T/C [13] 19.1% | viability, T/C [14] 16.3% | viability, T/C [19] 17.2% | viability, T/C [20] 11.7% | viability, T/C [25] 20.2% | viability, T/C [26] 12.2% | viability, T/C [31] 18.3% | viability, T/C [32] 13.4%

— PubChem BioAssay AID2060621 (Molecular Pharmacology Branch, DTP, NCI, 2025)
